Source: ChEMBL document CHEMBL1201862, “PubChem BioAssay data set” (2004)
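Test compounds were applied to cells in 96-well plates for 48 hours at 5 doses. Here, GI50 denotes the concentration required for 50% inhibition of growth.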 Calls of active or inactive are those of the source. No stated cut-off is given here; in the data, active = GI50 up to about 1.1 µM and inactive = higher. Where a SMILES comes first, the peptide text is derived from it. Bridges are numbered along the chain shown (N, C = ends). [ ]: non-standard residue; d: D form. The star is where a group is joined. ξ: configuration not given here. ξNMePhe(4-NMe2) = CNC(Cc1ccc(N(C)C)cc1)C(=O)O; Picolinoyl(3-OH) = O=C(c1ncccc1O)*; ξPip(4-oxo) = O=C1CCNC(C(=O)O)C1; Phg = N[CH](C(=O)O)c1ccccc1; Abu = CC[CH](N)C(=O)O

Legend:
Test in all cases: DTP human tumour cell line panel, 48 h
COLO 205 = test system: COLO 205
EKVX = test system: EKVX
HCT-15 = test system: HCT-15
K562 = test system: K562
LOX IMVI = test system: LOX IMVI
M14 = test system: M14
MCF7 = test system: MCF7
MDA-MB-435 = test system: MDA-MB-435
MDA-N = test system: MDA-N
MOLT-4 = test system: MOLT-4
NCI-H226 = test system: NCI-H226
NCI-H522 = test system: NCI-H522
NCI/ADR-RES = test system: NCI/ADR-RES
OVCAR-3 = test system: OVCAR-3
PC-3 = test system: PC-3
RPMI-8226 = test system: RPMI-8226
RXF 393 = test system: RXF 393
SF-295 = test system: SF-295
U-251 = test system: U-251
UO-31 = test system: UO-31

| Structure (SMILES) | GI50 (COLO 205) | GI50 (EKVX) | GI50 (HCT-15) [µM] | GI50 (K562) | GI50 (LOX IMVI) | GI50 (M14) | GI50 (MCF7) | GI50 (MDA-MB-435) | GI50 (MDA-N) | GI50 (MOLT-4) | GI50 (NCI-H226) | GI50 (NCI-H522) | GI50 (NCI/ADR-RES) | GI50 (OVCAR-3) | GI50 (PC-3) | GI50 (RPMI-8226) | GI50 (RXF 393) | GI50 (SF-295) | GI50 (U-251) | GI50 (UO-31) |
| --- | --- | --- | --- | --- | --- | --- | --- | --- | --- | --- | --- | --- | --- | --- | --- | --- | --- | --- | --- | --- |
| O=C(c1ccccc1)C(C(=O)c1ccccc1)c1nc2ccccc2sc1=O | 12.5 µM (inactive) | 16.1 µM (inactive) | 7.48 | 12 µM (inactive) | 9.68 µM (inactive) | 15.8 µM (inactive) | 12.2 µM (inactive) | 10.4 µM (inactive) | > 25 µM (inactive) | 8.09 µM (inactive) | 7.08 µM (inactive) | 9.57 µM (inactive) | 10.5 µM (inactive) | > 25 µM (inactive) | 12.9 µM (inactive) | 7.18 µM (inactive) | > 25 µM (inactive) | 10.1 µM (inactive) | 5.73 µM (inactive) | 10.4 µM (inactive) |
| CC[C@@]1(O)C(=O)OCc2c1cc1n(c2=O)Cc2cc3c(N)cccc3nc2-1 [9-AMINOCAMPTOTHECIN] | 0.157 µM (active) | 0.34 µM (active) | 0.197 | 0.112 µM (active) | < 0.01 µM (active) | 0.0113 µM (active) | < 0.01 µM (active) | 0.118 µM (active) | 0.229 µM (active) | < 0.01 µM (active) | 0.0102 µM (active) | 0.0181 µM (active) | 0.0128 µM (active) | 0.207 µM (active) | 0.0728 µM (active) | 0.0764 µM (active) | 0.0408 µM (active) | < 0.01 µM (active) | 0.0108 µM (active) | 0.0175 µM (active) |
| O=C(NNC(=O)c1ccco1)c1ccco1 | > 100 µM (inactive) | > 100 µM (inactive) | > 100 | > 100 µM (inactive) | > 100 µM (inactive) | > 100 µM (inactive) | > 100 µM (inactive) | > 100 µM (inactive) | > 100 µM (inactive) | > 100 µM (inactive) | > 100 µM (inactive) | 15 µM (inactive) | > 100 µM (inactive) | > 100 µM (inactive) | > 100 µM (inactive) | > 100 µM (inactive) | > 100 µM (inactive) | > 100 µM (inactive) | > 100 µM (inactive) | > 100 µM (inactive) |
| O=S(=O)(O)c1cc(O)c2c(/N=C\c3ccccc3O)cc(S(=O)(=O)O)cc2c1 | > 100 µM (inactive) | > 100 µM (inactive) | > 100 | 86.5 µM (inactive) | > 100 µM (inactive) | > 100 µM (inactive) | > 100 µM (inactive) | > 100 µM (inactive) | > 100 µM (inactive) | 9.57 µM (inactive) | > 100 µM (inactive) | > 100 µM (inactive) | > 100 µM (inactive) | > 100 µM (inactive) | > 100 µM (inactive) | > 100 µM (inactive) | > 100 µM (inactive) | > 100 µM (inactive) | > 100 µM (inactive) | > 100 µM (inactive) |
| C[n+]1c2ccccc2n2c3ccccc3c(NCCCn3ccnc3)c(C#N)c21 | 1.23 µM (inactive) | 4.78 µM (inactive) | 5.66 | 2.39 µM (inactive) | 1.49 µM (inactive) | 2.26 µM (inactive) | 0.547 µM (active) | 2.23 µM (inactive) | 2.7 µM (inactive) | 0.533 µM (active) | 2.85 µM (inactive) | 0.575 µM (active) | > 42 µM (inactive) | 2.36 µM (inactive) | 2.02 µM (inactive) | 1.22 µM (inactive) | 0.923 µM (active) | 3.74 µM (inactive) | 2.18 µM (inactive) | 7.21 µM (inactive) |
| CC1=C/C(O)CC(=O)Cc2nc(co2)C(=O)N2CCC=C2C(=O)OC(C(C)C)C(C)/C=C/C(=O)NC\C=C\1.CCC1NC(=O)C(NC(=O)c2ncccc2O)C(C)OC(=O)C(c2ccccc2)NC(=O)C2CC(=O)CCN2C(=O)C(Cc2ccc(N(C)C)cc2)N(C)C(=O)C2CCCN2C1=O (stereo not given) ({Picolinoyl(3-OH)}-T[Abu]P[ξNMePhe(4-NMe2)][ξPip(4-oxo)][Phg]; ester 1-C; configuration not given here) | 6.59 µM (inactive) | 13.6 µM (inactive) | 9.51 | 4.72 µM (inactive) | 3.87 µM (inactive) | 15 µM (inactive) | 7.29 µM (inactive) | 12 µM (inactive) | 8.07 µM (inactive) | 3.64 µM (inactive) | 13.6 µM (inactive) | 9.1 µM (inactive) | 25.3 µM (inactive) | 8.04 µM (inactive) | 8.07 µM (inactive) | 4.68 µM (inactive) | 11.4 µM (inactive) | 3.66 µM (inactive) | 11.7 µM (inactive) | 20.8 µM (inactive) |
| c1cc2c(cc1NC1=NCCO1)OCO2 | > 100 µM (inactive) | > 100 µM (inactive) | > 100 | 11.9 µM (inactive) | > 100 µM (inactive) | > 100 µM (inactive) | > 100 µM (inactive) | 50.4 µM (inactive) | 42.2 µM (inactive) | > 100 µM (inactive) | > 100 µM (inactive) | > 100 µM (inactive) | > 100 µM (inactive) | > 100 µM (inactive) | > 100 µM (inactive) | > 100 µM (inactive) | > 100 µM (inactive) | > 100 µM (inactive) | > 100 µM (inactive) | > 100 µM (inactive) |
| CC(Cl)(CCC(Cl)C(C)(C)Cl)C(=O)CBr (stereo not given) | 6.27 µM (inactive) | 16.4 µM (inactive) | 8.28 | 2.88 µM (inactive) | 2.06 µM (inactive) | 9.79 µM (inactive) | 13 µM (inactive) | 14.2 µM (inactive) | 8.2 µM (inactive) | 1.21 µM (inactive) | 16.8 µM (inactive) | 1.95 µM (inactive) | 22.8 µM (inactive) | 15.4 µM (inactive) | 14.6 µM (inactive) | 2.25 µM (inactive) | 2.88 µM (inactive) | 21.4 µM (inactive) | 15.6 µM (inactive) | 9.31 µM (inactive) |
| O=C(Nn1cc(F)c(=O)[nH]c1=O)C12CC3CC(CC(C3)C1)C2 | 9.75 µM (inactive) | 24 µM (inactive) | 6.56 | 14.6 µM (inactive) | 7.8 µM (inactive) | 15.1 µM (inactive) | 5.22 µM (inactive) | 10 µM (inactive) | 8.97 µM (inactive) | 16 µM (inactive) | 38.9 µM (inactive) | 16.6 µM (inactive) | 24.2 µM (inactive) | 10.4 µM (inactive) | 10.7 µM (inactive) | 6.93 µM (inactive) | 16.4 µM (inactive) | 26.6 µM (inactive) | 19.3 µM (inactive) | 8.2 µM (inactive) |
